Data taken from ChEMBL document CHEMBL5518214, “Discovery and Structure-Activity Relationships of Novel ssDAF-12 Receptor Modulators” (J Med Chem, 2024).
pEC50, pIC50: −log10 of the molar value. In brackets after ≈: the same amount, converted by molar mass.

Columns and labels:
[1] = molecular target: T1, Nuclear hormone receptor isoform A (Strongyloides stercoralis, UniProt A0A0K0EQJ4); assay: Agonist activity at GST-tagged Strongyloides stercoralis DAF-12 LBD incubated for 0.5 hrs in presence of biotinylated SRC1 and SRC2 by Alphascreen assay
T1 sequence (A0A0K0EQJ4 whole entry): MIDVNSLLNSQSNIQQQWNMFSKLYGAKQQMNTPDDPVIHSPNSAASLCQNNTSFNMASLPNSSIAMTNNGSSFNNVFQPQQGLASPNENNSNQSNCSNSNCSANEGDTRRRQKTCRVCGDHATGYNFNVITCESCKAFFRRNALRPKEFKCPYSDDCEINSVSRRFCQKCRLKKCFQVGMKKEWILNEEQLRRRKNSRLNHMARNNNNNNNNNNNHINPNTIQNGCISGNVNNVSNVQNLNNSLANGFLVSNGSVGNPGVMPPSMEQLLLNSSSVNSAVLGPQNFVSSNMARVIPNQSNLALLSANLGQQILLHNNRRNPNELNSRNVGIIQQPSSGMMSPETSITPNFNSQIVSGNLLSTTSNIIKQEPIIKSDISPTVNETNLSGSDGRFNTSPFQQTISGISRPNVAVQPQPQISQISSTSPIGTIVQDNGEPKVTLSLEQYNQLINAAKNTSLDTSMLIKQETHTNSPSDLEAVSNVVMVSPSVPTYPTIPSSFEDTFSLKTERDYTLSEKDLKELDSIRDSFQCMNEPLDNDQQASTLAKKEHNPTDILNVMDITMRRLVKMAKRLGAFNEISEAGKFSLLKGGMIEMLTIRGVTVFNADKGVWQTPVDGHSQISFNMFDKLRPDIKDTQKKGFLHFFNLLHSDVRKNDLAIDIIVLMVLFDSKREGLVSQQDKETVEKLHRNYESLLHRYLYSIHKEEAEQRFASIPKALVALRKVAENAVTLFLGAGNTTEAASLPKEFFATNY

[2] = molecular target: T1, Nuclear hormone receptor isoform A; assay: Antagonist activity at GST-tagged Strongyloides stercoralis DAF-12 LBD incubated for 0.5 hrs in presence of biotinylated SRC1 and SRC2 by Alphascreen assay
[3] = Kinetic solubility of compound at pH 7.4 by HPLC/MS analysis; format: physicochemical; conditions: buffer, read-out: Kinetic_solubility
[4] = Metabolic stability in human liver microsome assessed as half life measured for 30 mins by LC-MS analysis; format: ADME; conditions: human liver microsomes
[5] = Drug metabolism in human liver microsome incubated for 90 mins in presence of NADPH by LC-MS/MS analysis; format: ADME; conditions: microsomes, 1.5 h
[6] = Metabolic stability in human liver microsome assessed as parent compound remaining measured for 30 mins by LC-MS analysis; format: ADME; conditions: human liver microsomes, read-out: Stability
[7] = molecular target: T2, Nuclear hormone receptor isoform A (Strongyloides stercoralis) (UniProt A0A0K0EQJ4); assay: Agonist activity at GST-tagged Strongyloides stercoralis DAF-12 LBD incubated for 0.5 hrs in presence of biotinylated SRC1 and SRC2 by Alphascreen assay relative to control; conditions: filed as agonist
T2 sequence (whole entry): T1 sequence (A0A0K0EQJ4 whole entry)

[8] = molecular target: T1, Nuclear hormone receptor isoform A; assay: Agonist activity at Strongyloides stercoralis DAF-12 LBD transfected in CHO cells; format: cell-based
HepG2 = assay: Cytotoxicity against human HepG2 cells assessed as reduction in cell viability incubated for 4 hrs by celltiter glo assay; format: toxicity, cell-based; conditions: hepg2, 4 h
[9] = Drug metabolism in human liver microsome assessed as (2S,6R)-6-((5S,10S,13R,17R)-3-hydroxy-10,13-dimethyl-2,3,4,5,6,9,10,11,12,13,14,15,16,17-tetradecahydro-1H-cyclopenta[a]phenanthren-17-yl)-2-methylheptanoic acid formation by measuring retention time incubated for 90 mins in presence of NADPH by LC-MS/MS analysis; format: ADME; conditions: microsomes, 1.5 h
[10] = molecular target: T1, Nuclear hormone receptor isoform A; assay: Partial agonist activity at GST-tagged Strongyloides stercoralis DAF-12 LBD incubated for 0.5 hrs in presence of biotinylated SRC1 and SRC2 by Alphascreen assay
[11] = molecular target: T2, Nuclear hormone receptor isoform A (Strongyloides stercoralis); assay: Partial agonist activity at GST-tagged Strongyloides stercoralis DAF-12 LBD incubated for 0.5 hrs in presence of biotinylated SRC1 and SRC2 by Alphascreen assay relative to control

| pEC50 [1] | pIC50 [2] | Emax [7] [%] | SMILES | also measured |
| --- | --- | --- | --- | --- |
| < 4.00 | 5.16 | – | C[C@H](CCc1nn[nH]n1)[C@H]1CC[C@H]2C3=CC[C@H]4CC(=O)CC[C@]4(C)C3CC[C@]12C (stereo partly specified) | – |
| < 4.00 | 4.75 | – | C[C@H](CCCc1nnn(C)n1)[C@H]1CC[C@H]2C3=CC[C@H]4CC(=O)CC[C@]4(C)C3CC[C@]12C (stereo partly specified) | – |
| < 4.00 | 5.00 | – | C[C@H](CCc1nnn(C)n1)[C@H]1CC[C@H]2C3=CC[C@H]4CC(=O)CC[C@]4(C)C3CC[C@]12C (stereo partly specified) | – |
| < 4.00 | 4.22 | – | C[C@H](CCc1nnn(C(c2ccccc2)(c2ccccc2)c2ccccc2)n1)[C@H]1CC[C@H]2C3=CC[C@H]4CC(=O)CC[C@]4(C)C3CC[C@]12C (stereo partly specified) | – |
| – | – | – | C[C@@H](CCC[C@@H](C)[C@H]1CC[C@H]2C3=CC[C@H]4CC(=O)CC[C@]4(C)C3CC[C@]12C)COS(=O)(=O)O (stereo partly specified) | pEC50 [10]: 5.14; Emax [11]: 15% |
| – | – | – | C[C@H](CO)CCC[C@@H](C)[C@H]1CC[C@H]2C3=CC[C@H]4CC(=O)CC[C@]4(C)C3CC[C@]12C (stereo partly specified) | pEC50 [10]: 5.99; Emax [11]: 36% |
| – | – | – | CNC(=O)[C@@H](C)CCC[C@@H](C)[C@H]1CC[C@H]2C3=CC[C@H]4CC(=O)CC[C@]4(C)C3CC[C@]12C (stereo partly specified) | pEC50 [10]: 5.99; Emax [11]: 11% |
| < 4.00 | 4.77 | – | C[C@H](CCCC1=C(O)CCC1=O)[C@H]1CC[C@H]2C3=CC[C@H]4CC(=O)CC[C@]4(C)C3CC[C@]12C (stereo partly specified) | – |
| 6.39 | – | 85 | C[C@H](CCC[C@H](C)C(=O)NS(C)(=O)=O)[C@H]1CC[C@H]2C3=CC[C@H]4CC(=O)CC[C@]4(C)C3CC[C@]12C (stereo partly specified) | solubility kinetic [3]: > 250 µM; pEC50 [8]: 6.33; Retention_time [9]: 7.28 min |
| 6.19 | – | 95 | C[C@H](CCC[C@H](C)C(=O)NS(=O)(=O)N(C)C)[C@H]1CC[C@H]2C3=CC[C@H]4CC(=O)CC[C@]4(C)C3CC[C@]12C (stereo partly specified) | – |
| 5.33 | – | 40 | Cc1ccc(S(=O)(=O)NC(=O)[C@@H](C)CCC[C@@H](C)[C@H]2CC[C@H]3C4=CC[C@H]5CC(=O)CC[C@]5(C)C4CC[C@]23C)cc1 (stereo partly specified) | – |
| < 4.00 | 5.11 | – | C[C@H](CCc1nnn(C(C)(C)C)n1)[C@H]1CC[C@H]2C3=CC[C@H]4CC(=O)CC[C@]4(C)C3CC[C@]12C (stereo partly specified) | – |

| SMILES | pEC50 [1] | pIC50 [2] | Emax [7] [%] | also measured |
| --- | --- | --- | --- | --- |
| C[C@H](CCC[C@H](C)C(=O)O)[C@H]1CC[C@H]2C3=CC[C@H]4CC(=O)CC[C@]4(C)C3CC[C@]12C (stereo partly specified) | 7.10 | – | 100 | solubility kinetic [3]: 4 µM (≈ 1.66 µg/mL); half-life [4]: 17 min; Drug metabolism [5]: Metabolite_Detected; remaining at 0.5 h [6]: 50%; pEC50 [8]: 7.05; Activity (HepG2): Non-Toxic; Retention_time [9]: 8.51 min |
